Experimental findings from PMC10037152 (Plant Biotechnology Journal, 2023) are described below.

Test [1] addresses 3CL^pro of SARS-CoV-2 (Severe acute respiratory syndrome coronavirus 2, UniProt P0DTD1). Briefly: Inhibition activity against 3CLpro by fluorescence resonance energy transfer. The class given is biochemical. The note with it: read-out: IC50 against 3CL^pro; n = 3.
For test [2], the target named is PL^pro of SARS-CoV-2 (Severe acute respiratory syndrome coronavirus 2, UniProt P0DTD1). Briefly: Inhibition activity against PLpro by fluorescence resonance energy transfer. Format: biochemical. Particulars: read-out: IC50 against PL^pro; n = 3.

The term IC50 denotes the point on the concentration scale where inhibition reaches its midpoint. As for `CC1(C)CC[C@]2(C(=O)O)CC[C@]3(C)C(=CC[C@@H]4[C@@]5(C)CC[C@H](O[C@@H]6O[C@H](CO)[C@@H](O)[C@H](O)[C@H]6O)C(C)(C)C5CC[C@]43C)[C@H]2C1` (some centres unmarked) [Compound 34, oleanolic acid‐3‐O‐glucoside], the results for the IC50 in test [1] and in test [2] were 5.95 µM and 7.57 µM, respectively.
